Assay results published in PMC6533066 (Biomedical microdevices, 2019).
Structures can show the parent of a compound that is named as a salt.

Experiments:
[1] = in vivo; cited from earlier work
[2] = Wistar rats
[3] = 1 mg/kg bolus iv (jugular vein), serum, HPLC-MS/MS, mean ± SD, n = 6 rats, SD
[4] = 1 mg/kg bolus iv, mean ± SD, n = 6 rats, SD

Row | SMILES | detection in ISF [1] | Cmax, Serum [2, 3] [ng/mL] | Tmax, Serum [2, 3] [min] | delay in time to peak vancomycin concentration (Tmax) in ISF compared to serum ([2]; 1 mg/kg bolus iv, Student's t-test p < 0.05) | AUC Ratio (ISF:serum) [2, 4] | Cmax Ratio (ISF:serum) [2, 4] | Tmax Ratio (ISF:serum) [2, 4]
1 | O=C1NC(=O)C(c2ccccc2)(c2ccccc2)N1 [phenytoin] | not detectable |  |  |  |  |  | 
2 | CN[C@H](CC(C)C)C(=O)N[C@H]1C(=O)N[C@@H](CC(N)=O)C(=O)N[C@H]2C(=O)N[C@H]3C(=O)N[C@H](C(=O)N[C@H](C(=O)O)c4cc(O)cc(O)c4-c4cc3ccc4O)[C@H](O)c3ccc(c(Cl)c3)Oc3cc2cc(c3O[C@@H]2O[C@H](CO)[C@@H](O)[C@H](O)[C@H]2O[C@H]2C[C@](C)(N)[C@H](O)[C@H](C)O2)Oc2ccc(cc2Cl)[C@H]1O [vancomycin, Vancomycin hydrochloride] |  | 2600 ± 600 | 10 ± 0 | ~ 17 min | 1.3 ± 0.2 | 0.9 ± 0.2 | 2.7 ± 1.6
